# According to US7495013B2, “Chemical compounds” (AstraZeneca AB, priority 2004, dated 2009):
# Counter-ions that a name gives are not always drawn.
# Target: T1, human H1 receptor (Homo sapiens, UniProt P35367)
# T1 construct: purchased Euroscreen SA, Brussels, Belgium ES-390-M; host or cells: CHO-K1
# Test: Histamine H1 receptor binding, competition displacement of [3H]-pyrilamine
# Conditions: competition displacement of 1 nM [3H]-pyrlamine; 2 μg membranes from recombinant CHO-K1 cells expressing the human H1 receptor; 1 hour at room temperature; read-out: H1 pKi (converted)
# T1 sequence (P35367 whole entry): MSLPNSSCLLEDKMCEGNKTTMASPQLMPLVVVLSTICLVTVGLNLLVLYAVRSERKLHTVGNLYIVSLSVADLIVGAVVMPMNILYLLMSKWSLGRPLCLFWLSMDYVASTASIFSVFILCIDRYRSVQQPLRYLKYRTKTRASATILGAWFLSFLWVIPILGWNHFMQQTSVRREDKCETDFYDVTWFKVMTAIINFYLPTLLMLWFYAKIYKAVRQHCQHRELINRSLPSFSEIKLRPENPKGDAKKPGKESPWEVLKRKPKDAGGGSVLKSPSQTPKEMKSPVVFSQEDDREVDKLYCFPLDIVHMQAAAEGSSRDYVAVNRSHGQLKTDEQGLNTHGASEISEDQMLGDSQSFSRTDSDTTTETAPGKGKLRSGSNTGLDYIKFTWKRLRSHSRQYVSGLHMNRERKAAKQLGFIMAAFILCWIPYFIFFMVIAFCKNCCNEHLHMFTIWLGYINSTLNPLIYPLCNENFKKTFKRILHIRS
row,Ki [µM],SMILES
1,0.02,"Cc1c(OC2CCN(CC3CCN([C@@H](Cc4cccc(C#N)c4)C(=O)O)CC3)CC2)ccc(Cl)c1Cl [Example 57, (αS)-α-[(3-Cyanophenyl)methyl]-4-[[4-(3,4-dichloro-2-methylphenoxy)-1-piperidinyl]methyl]-1-piperidineacetic acid]"
2,0.0631,"C[C@@H](c1ccccc1)[C@@H](C(=O)O)N1CCC(CN2CCC(Oc3ccc(Cl)c(Cl)c3)CC2)CC1 [Example 59, (αS)-4-[[4-(3,4-Dichlorophenoxy)-1-piperidinyl]methyl]-α-[(1S)-1-phenylethyl]-1-piperidineacetic acid]"
3,0.0316,"Cc1c(Cl)ccc(OC2CCN(CC3CCN([C@@H](Cc4ccccc4)C(=O)O)CC3)CC2)c1Cl [Example 37, (αS)4-[[4-(2,4Dichloro-3-methylphenoxy)-1-piperidinyl]methyl]-α-(phenylmethyl)-1-piperidineacetic acid]"
4,0.126,"O=C(O)[C@H](CCc1ccccc1)N1CCC(CN2CCC(Oc3ccc(Cl)c(Cl)c3)CC2)CC1 [Example 78, (αS)-4-[[4-(3,4-Dichlorophenoxy)-1-piperidinyl]methyl]-α-(2-phenylethyl)-1-piperidineacetic acid dihydrochloride]"
5,0.251,"O=C(O)[C@H](Cc1cccs1)N1CCC(CN2CCC(Oc3ccc(Cl)c(Cl)c3)CC2)CC1 [Example 80, (αS)-4-[[4-(3,4Dichlorophenoxy)-1-piperidinyl]methyl]-α-(2-thienylmethyl)-1-piperidineacetic acid]"
6,0.0126,"Cc1c(OC2CCN(CC3CCN([C@@H](Cc4ccccc4C#N)C(=O)O)CC3)CC2)ccc(Cl)c1Cl [Example 56, (αS)-α-[(2-Cyanophenyl)methyl]-4-[[4-(3,4-dichloro-2-methylphenoxy)-1-piperidinyl]methyl]-1-piperidineacetic acid]"
7,0.0631,"O=C(O)[C@H](CCc1ccccc1)N1CCC(CN2CCC(Oc3ccc(Cl)c(Cl)c3)CC2)CC1 [Example 66, (αS)-4-[[4-(3,4-Dichlorophenoxy)-1-piperidinyl]methyl]-α-(2-phenylethyl)-1-piperidineacetic acid]"
8,0.158,"Cc1c(Cl)ccc(OC2CCN(CC3CCN([C@@H](Cc4ccccc4)C(=O)O)CC3)CC2)c1Cl [Example 71, (αS)-4-[[4-(2,4-Dichloro-3-methylphenoxy-1-piperidinyl]methyl]-α-(phenylmethyl)-1-piperidineacetic acid, dihydrochloride salt]"
9,0.126,"O=C(O)[C@H]([C@H](O)c1ccccc1)N1CCC(CN2CCC(Oc3ccc(Cl)c(Cl)c3)CC2)CC1 [Example 58, (αS)-4-[[4-(3,4-Dichlorophenoxy)-1-piperidinyl]methyl]-α-[(R)-hydroxyphenylmethyl]-1-piperidineacetic acid]"
10,0.0501,"O=C(O)[C@H](Cc1cccnc1)N1CCC(CN2CCC(Oc3ccc(Cl)c(Cl)c3)CC2)CC1 [Example 42, (αS)-α-[4-[[4-(3,4-Dichlorophenoxy)-1-piperidinyl]methyl]-1-piperidinyl]-3-pyridinepropanoic acid]"
11,0.398,"Cn1cncc1C[C@@H](C(=O)O)N1CCC(CN2CCC(Oc3ccc(Cl)c(Cl)c3)CC2)CC1 [Example 81, (αS)-4-[[4-(3,4-Dichlorophenoxy)-1-piperidinyl]methyl]-α-[(1-methyl-1H-imidazol-5-yl)methyl]-1-piperidineacetic acid]"
